# According to paper PMC11352039, “Isolation and Characterization of Antioxidant Peptides from Dairy Cow (Bos taurus) Placenta and Their Antioxidant Activities” (Antioxidants, 2024):
# Read-outs that look alike come from different tables or passages of the source.
# Tests used:
# RAW264.7 cells [1] = conditions: MTS; for cell survival rate: mean ± SD
# Experimental: RAW264.7 cells were cultured in a 5% CO2 environment at 37 °C using a specific complete medium (DMEM (PM150210) + 10% FBS (164210-50) + 1%P/S (PB180120)) designed for RAW264.7 cells. Cells in the logarithmic growth phase were harvested and seeded into 96-well plates at a density of 1 × 10^5 cells/mL per well with 100 μL of inoculation volume. Subsequently, the plates were pre-cultured for 12 h at 37 °C in a 5% CO2 atmosphere, following which the medium was removed.
# The pre-cultured RAW264.7 cells were then divided into control (C) and model (M) groups. Then, 100 μL of complete medium was added to group C, and 100 μL of complete medium containing concentrations of 250, 300, 350, 400, and 450 μmol/L H2O2 was added to group M. After continuing the incubation for 6 h, the medium was discarded. Cell viability was assessed using the MTS method. The optimal H2O2 concentration for inducing the oxidative stress model was determined when cell viability decreased to 50%, ensuring that the cells maintained a specific viability level while meeting the damage criteria.
# [2] = cited from earlier work; for DPPH free-radical scavenging IC50: AOPs from skipjack tuna protein extract
# Description: The virtual screening method, employing peptide affinity for Keap1 as a screening parameter, exclusively confirms the capability of CP1 to activate the Keap1/Nrf2 pathway. On the other hand, the chromatographic method, utilizing the free-radical scavenging rate as a screening metric, solely validates the ability of CP2 to scavenge free radicals. […] The chemical method for evaluating AOP antioxidant activity can be categorized into two main types: hydrogen atom transfer and electron transfer. In assays such as hydroxyl and DPPH radical scavenging, AOP transforms free radicals into anions via electron transfer. Moreover, in the lipid peroxidation inhibition assay, AOP hinders lipid peroxidation by releasing hydrogen atoms, thereby deactivating free radicals.
# [3] = cited from earlier work
# Description: AOP antioxidant activity is primarily assessed through chemical and cell modeling methods. The chemical method for evaluating AOP antioxidant activity can be categorized into two main types: hydrogen atom transfer and electron transfer. In assays such as hydroxyl and DPPH radical scavenging, AOP transforms free radicals into anions via electron transfer. Moreover, in the lipid peroxidation inhibition assay, AOP hinders lipid peroxidation by releasing hydrogen atoms, thereby deactivating free radicals.
# RAW264.7 cells [4] = assay: Survival of normal cells (MTS); assay type: cell-based; conditions: 24 h
# Experimental: Pre-cultured RAW264.7 cells were allocated into groups C, CP1, and CP2. Group C received 100 μL of complete medium, while groups CP1 and CP2 were supplemented with 100 μL of complete medium containing CP1 and CP2, respectively, at final concentrations of 1.25, 2.5, 5, 10, 20, and 40 μg/mL. The cells were then incubated for 24 h before discarding the medium. Cell viability was assessed using the MTS method to identify non-toxic concentration ranges for subsequent experiments.
# [5] = Antioxidant stability under simulated digestion; assay type: in vitro ADME; conditions: simulated GI (gastrointestinal) digestion versus G digestion; not significant (p > 0.05)
# Description: We refer to Chai et al. and Gallego et al. methods to evaluate the antioxidant stability of AOPs at different temperatures, pH levels, and simulated digestion conditions.
compound,measurement,setting,value
"OO [Peptide H2O2, hydrogen peroxide]",cell activity,"RAW264.7 cells [1]; RAW264.7, 200 μmol/L H2O2, 6 h",exceeded 90%
same,cell survival rate,"RAW264.7 cells [1]; RAW264.7, 250 μmol/L H2O2, 6 h",83.51 ± 6.15%
same,cell survival rate,"RAW264.7 cells [1]; RAW264.7, 300 μmol/L H2O2, 6 h",79.06 ± 3.21%
same,cell survival rate,"RAW264.7 cells [1]; RAW264.7, 350 μmol/L H2O2, 6 h",64.73 ± 0.99%
same,cell survival rate,"RAW264.7 cells [1]; RAW264.7, 400 μmol/L H2O2, 6 h",48.68 ± 5.48%
same,cell survival rate,"RAW264.7 cells [1]; RAW264.7, 450 μmol/L H2O2, 6 h",26.10 ± 1.65%
YFLWP,IC50 DPPH radical scavenging,[2]; yellow croaker AOP,1590 µg/mL
same,IC50 hydroxyl radical scavenging,[3]; yellow croaker AOP,2470 µg/mL
"EVGK [duck blood AOP, literature]",DPPH radical scavenging rate,"[2]; 0.5 mg/mL, duck blood AOP",26.63%
same,transition metal chelation rate,"[3]; 0.5 mg/mL, duck blood AOP",16.35%
"YGPEP [sheepskin AOP, literature]",IC50 lipid peroxidation inhibition rate,[3]; sheepskin AOP,3940 µg/mL
"QAEP [AOP from skipjack tuna protein extract, literature]",DPPH free-radical scavenging IC50,[2],1110 µg/mL
H-ANNGKQWAEVF-OH [CP1],cell viability of normal cells versus group C,"RAW264.7 cells [4]; RAW264.7, 40.00 μg/mL",significantly lower than that of group C
same,cell viability of normal cells versus group C,"RAW264.7 cells [4]; RAW264.7, 1.25 to 20.00 μg/mL",did not show a significant difference compared to group C
same,reduction of free-radical scavenging rate,[5],38.64%
"LCGEC [tuna AOP, literature]",DPPH radical scavenging rate,"[2]; 1 mg/mL, tuna AOP",16.83%
same,"DPPH radical scavenging rate, IC50",[2]; tuna AOP,exceeded 10 mg/mL
"QEAE [AOP from skipjack tuna protein extract, literature]",DPPH free-radical scavenging IC50,[2],1770 µg/mL
H-QPGLPGPAG-OH [CP2],cell viability of normal cells versus group C,"RAW264.7 cells [4]; RAW264.7, 40.00 μg/mL",significantly lower than that of group C
same,cell viability of normal cells versus group C,"RAW264.7 cells [4]; RAW264.7, 1.25 to 20.00 μg/mL",did not show a significant difference compared to group C
same,reduction of free-radical scavenging rate,[5],34.01%
